Data on four molecules can be found in patent US20200087258A1, “INHIBITOR OF CITRATE TRANSPORTER AND THEIR USE IN THERAPY” (Eternygen GmbH, priority 2017, published 2020).

pIC50: −log10 of the molar value.

One test concerns the target T1, GLT-1 (Homo sapiens, UniProt P43004).
T1 construct: host or cells: HEK293 (virus made in GP293 packaging cells)
Put plainly: 3H-glutamate uptake counter assay in HEK293 cells overexpressing human GLT-1. Type of test: cell-based. Here is the method:
(§1) The compound was obtained by screening of a library containing more than 50,000 lead-like compounds and fragments. The library was tested using a functional citrate uptake assay with HEK293 cells overexpressing recombinant human INDY. The following hit confirmation was conducted in the same assay system. To confirm the activity of selected compounds on the target INDY another cell assay was conducted. In this assay system citrate uptake was measured using HepG2 cells which endogenously express INDY. Furthermore selectivity of selected compounds was tested for two other transporters in different assay systems. The first transporter was the glutamate transporter GLT-1 tested in a glutamate uptake assays using HEK293 cells overexpressing recombinant human GLT-1. The second transporter was the glucose transporter GLUT1 tested in a glucose uptake assay using Huh-7 cells which endogenously express GLUT1. Compounds were considered to be selective with an at least 5-fold higher activity for INDY than for the other two transporters.
(§2) Cells were maintained in cell medium using cell culture grade flasks (CellSTACK Corning, 500 cm2 dishes or T175 depending on cell number). The selection antibiotic and G418 (800 μg/ml) was added during cultivation but not for seeding into assay plates. For splitting, cells were washed with PBS (w/o Ca2+, Mg2+, phenol red) and detached with Trypsin/EDTA. Throughout cultivation cells were kept sub-confluent. Detached cells (50,000 cells/well) were seeded in 96-well plates (white, clear bottom from Corning #655098) and incubated over night before usage in the assay. The following media were used. For HEK293 cells expressing INDY MEM (PAA)+10% FCS+1×P/S+2 mM L-Gln; for HEK293 cells expressing GLT-1 DMEM (Gibco)+10% FCS+400 µg/ml G418; for Huh7 cells DMEM (Gibco)+10% FCS+2 mM L-Gin (+1×P/S); for HepG2 cells MEM (PAA, Cat # E15-024)+10% FCS+2 mM L-Gin+1×NEAA+1 mM Na-Pyruvat
The following assay buffers for the particular uptake reaction were used. Citrate uptake buffer: 120 mM NaCl, 5.4 mM KCl, 0.8 mM MgSO4, 5 mM glucose, 1.8 mM CaCl2, 25 mM Hepes, 25 mM MES, pH 6.5. Glutamate uptake buffer: HBSS, 1 mM CaCl2, 1 mM MgCl2, 20 mM Hepes pH 7.4. Glucose uptake buffer: 25 mM Hepes+25 mM MES pH 7.4, 120 mM NaCl, 5.4 mM KCl, 1.8 mM CaCl2, 0.8 mM MgSO4.
As a counter assay, Glutamate uptake by the GLT-1 transporter was used. The principle of the assay is to measure the uptake of ^3H labelled glutamate into HEK cells, which overexpress human GLT-1.
The generation of a GLT-1 cell line was performed as follows: human GLT11 isoform sv1 cDNA (Origene # RC223924) was cloned into vector pFB-Neo-CMV-hGLT1 using QIAfilter Plasmid Midi Kit (Qiagen). Virus was generated in GP293 packaging cells (transfection of plasmid with Lipofectamine 2000+OptiMEM). For transfection into HEK cells GP293, supernatant containing virus was passed through a 0.45 micron sterile filter and DEAE-dextran was added at […] final concentration. The solution was used to transfect HEK293 cells at 37° C., 8.5% CO2. After 24 h selection marker G418 at 400 μg/ml was added and cultivation medium performed in DMEM 10% FBS.
The assay was performed in a 96-well format using repeated washing steps, cell lysis and addition of scintillation fluid. Assay buffer was HBSS, 1 mM CaCl2, 1 mM MgCl2, […] pH 7.4. Cells were seeded into white clear-bottom 96-well plates (50,000/well) in the presence of Poly-D-Lysine and incubated at 37° C. for 16-24 hours. Subsequently the plates were washed once with assay buffer using automated washing/LS 405 Selectors, BioTek ending with a buffer volume of 40 μl. Then 5 μl of compound solution in assay buffer was added and incubated for 20 min at 37° C. in cell incubator, HERA cell Heraeus. Afterwards 10 μl of substrate 3H-Glu (3 nM) were added and incubated for another 20 min at 37° C. in cell incubator, HERAcell. Then the plates were washed once with 200 μl cold assay buffer and 150 μl scintillation fluid was added. […]

Test [1] addresses T2, INDY (Homo sapiens, UniProt Q86YT5). Put plainly: 14C-citrate uptake in HepG2 cells endogenously expressing INDY (NaCT). Type of test: cell-based. Particulars: endogenous INDY. In outline: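 HepG2 cells, which express INDY endogenously, were preincubated with compound for 5 min at 37 °C in pH 6.5 Na+ citrate uptake buffer. 14C-citrate ([…]) was then added for 90 min at 37 °C. After washing and NaOH lysis, uptake was measured by scintillation counting, with 5 mM citrate as positive control.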

The target of the next test is T3, GLUT1 (Homo sapiens, UniProt P11166).
T3 construct: Huh-7 cells which endogenously express GLUT1; endogenous in cells; host or cells: Huh-7
T3 sequence (P11166 1-492): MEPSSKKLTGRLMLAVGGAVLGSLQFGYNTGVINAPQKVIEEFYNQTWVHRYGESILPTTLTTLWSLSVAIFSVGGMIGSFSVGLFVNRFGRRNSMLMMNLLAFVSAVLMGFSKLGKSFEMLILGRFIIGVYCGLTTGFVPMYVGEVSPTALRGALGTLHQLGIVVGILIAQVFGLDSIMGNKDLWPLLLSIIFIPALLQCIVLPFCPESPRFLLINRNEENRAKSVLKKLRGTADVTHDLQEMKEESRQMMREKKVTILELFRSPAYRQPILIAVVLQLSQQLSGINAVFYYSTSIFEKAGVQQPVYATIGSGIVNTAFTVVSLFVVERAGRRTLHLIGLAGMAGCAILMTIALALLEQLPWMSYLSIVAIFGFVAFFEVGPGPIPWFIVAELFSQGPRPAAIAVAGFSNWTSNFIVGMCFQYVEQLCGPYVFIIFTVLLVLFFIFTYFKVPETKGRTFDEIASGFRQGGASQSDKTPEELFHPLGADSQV
Put plainly: 3H-glucose uptake counter assay in Huh7 cells endogenously expressing GLUT1. Type of test: cell-based. As to conditions: endogenous GLUT1. As for the experimental part:
as §1
as §2, with “Na-Pyruvat […]” for “Na-Pyruvat”
Glucose uptake in Huh7 cells was measured as a counter assay. […] After 20 min incubation at RT plates were measured using TopCount system, Perkin Elmer. […]

In test [2] the target is T2, INDY. Put plainly: 14C-citrate uptake in HEK293 cells overexpressing recombinant human INDY (NaCT). Type of test: cell-based. More on the design: expressed in transfected cells; host or cells: HEK293. The essentials: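 HEK293 cells overexpressing human NaCT, 50,000/well, preincubated 5-30 min at 37 °C with compound in pH 6.5 Na+ buffer. 14C-citrate ([…]) uptake then ran 20-90 min at 37 °C, followed by ice-cold washes, NaOH lysis and scintillation counting. 10 mM citrate served as positive control.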

The test system of test [3] is Indy. As to conditions: at 0.1 mM; cited from earlier work.

A word on the pIC50: it is the negative decadic logarithm of the IC50, by convention in mol/L.

T2 sequence (Q86YT5 whole entry): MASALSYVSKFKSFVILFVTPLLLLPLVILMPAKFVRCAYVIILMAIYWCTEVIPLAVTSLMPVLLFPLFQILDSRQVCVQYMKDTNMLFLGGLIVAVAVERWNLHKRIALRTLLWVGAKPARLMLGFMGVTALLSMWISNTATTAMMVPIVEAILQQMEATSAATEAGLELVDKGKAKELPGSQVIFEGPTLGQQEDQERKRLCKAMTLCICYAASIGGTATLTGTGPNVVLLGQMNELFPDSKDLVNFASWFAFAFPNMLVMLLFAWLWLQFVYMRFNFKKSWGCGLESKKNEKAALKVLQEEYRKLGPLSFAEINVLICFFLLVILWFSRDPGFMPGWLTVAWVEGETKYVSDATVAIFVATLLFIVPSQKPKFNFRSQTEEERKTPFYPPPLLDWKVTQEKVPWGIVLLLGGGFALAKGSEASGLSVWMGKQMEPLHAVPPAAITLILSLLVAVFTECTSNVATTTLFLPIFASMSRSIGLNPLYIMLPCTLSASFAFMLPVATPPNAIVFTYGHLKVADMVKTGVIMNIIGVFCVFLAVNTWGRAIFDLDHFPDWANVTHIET
T1 sequence (P43004 whole entry): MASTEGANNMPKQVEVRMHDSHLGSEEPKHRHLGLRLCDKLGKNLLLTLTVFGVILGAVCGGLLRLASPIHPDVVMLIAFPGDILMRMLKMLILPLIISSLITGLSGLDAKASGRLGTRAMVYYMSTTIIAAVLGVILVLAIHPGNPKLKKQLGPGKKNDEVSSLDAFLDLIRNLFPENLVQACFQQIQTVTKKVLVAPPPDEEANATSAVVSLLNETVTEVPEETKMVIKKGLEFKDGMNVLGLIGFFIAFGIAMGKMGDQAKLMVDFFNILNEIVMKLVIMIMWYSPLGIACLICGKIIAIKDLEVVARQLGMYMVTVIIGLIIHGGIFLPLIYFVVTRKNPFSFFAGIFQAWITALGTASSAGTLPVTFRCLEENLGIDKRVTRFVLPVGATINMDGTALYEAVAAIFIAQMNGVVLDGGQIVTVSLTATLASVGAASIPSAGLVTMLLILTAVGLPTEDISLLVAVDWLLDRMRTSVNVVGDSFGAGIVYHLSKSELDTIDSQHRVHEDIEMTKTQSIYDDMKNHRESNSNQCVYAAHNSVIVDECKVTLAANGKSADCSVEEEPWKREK

For `O=C(NCc1ccccc1F)C1CCN(S(=O)(=O)c2ccccc2)CC1` [Example 6, N-[(2-fluorophenyl)methyl]-1-(benzenesulfonyl) piperidine-4-carboxamide], the negative-log IC50 (pIC50) on GLT-1 was < 4.30; against INDY [1], 5.24; on GLUT1, < 4.30.

With `O=C(NCc1ccccc1F)C1CN(S(=O)(=O)/C=C/c2ccccc2)C1` [Example 1, N-[(2-fluorophenyl)methyl]-1-[(E)-phenylethenesulfonyl]azetidine-3-carboxamide], the negative-log IC50 (pIC50) at INDY [1] is 5.27; against GLUT1 it was < 4.30.

For the molecule `O=C(NCc1ccccc1)C1CCN(S(=O)(=O)c2cc(Cl)cc(Cl)c2)CC1` [Example 103, N-benzyl-1-(3,5-dichlorobenzenesulfonyl)piperidine-4-carboxamide], the negative logarithm of the IC50 (pIC50) against GLT-1 is < 4.70; at INDY [2] it was 7.00; on INDY [1], 7.00.

For `O=C(O)CC(O)(C(=O)O)C(O)C(=O)O` (stereo not drawn) [hydroxycitrate], the “inhibition of Indy” value with Indy [3] is recorded as 30-40%.
